Where two headings read alike, the source gives them in different places.
How the values were obtained:
full length human TREX1 = target: T1, full length human TREX1 (Homo sapiens, UniProt Q9NSU2); assay: hTREX1 Biochemical Assay (fluorescence, dsDNA substrate degradation)
T1 construct: N-terminally His-Tev tagged full length human TREX1; made in house; host or cells: E. coli
T1 sequence (Q9NSU2 1-314): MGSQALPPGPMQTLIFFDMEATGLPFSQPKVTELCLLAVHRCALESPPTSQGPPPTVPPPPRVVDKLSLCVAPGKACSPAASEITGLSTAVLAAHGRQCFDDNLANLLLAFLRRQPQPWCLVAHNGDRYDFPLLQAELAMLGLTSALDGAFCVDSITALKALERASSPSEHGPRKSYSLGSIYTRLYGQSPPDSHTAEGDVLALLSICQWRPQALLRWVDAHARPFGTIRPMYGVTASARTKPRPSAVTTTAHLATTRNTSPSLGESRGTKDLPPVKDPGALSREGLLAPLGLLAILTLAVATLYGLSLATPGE
Procedure, shortened: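 Fluorescence rises as enzyme degrades a quenched TEX615-labelled dsDNA substrate (60 nM) in 50 mM Tris, 150 mM NaCl, 5 mM MgCl2, pH 7.4. Full-length His-Tev-tagged human TREX1, 4 pM, sits with compound 4 hours at 25° C before substrate; reaction 18 hours, stopped with EDTA.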

full length mouse TREX1 = target: T2, full length mouse TREX1 (Mus musculus, UniProt Q91XB0); assay: mTREX1 Biochemical Assay (fluorescence, dsDNA substrate degradation)
T2 construct: N-terminally His-Tev tagged full length mouse TREX1; made in house; host or cells: E. coli
T2 sequence (Q91XB0 1-314): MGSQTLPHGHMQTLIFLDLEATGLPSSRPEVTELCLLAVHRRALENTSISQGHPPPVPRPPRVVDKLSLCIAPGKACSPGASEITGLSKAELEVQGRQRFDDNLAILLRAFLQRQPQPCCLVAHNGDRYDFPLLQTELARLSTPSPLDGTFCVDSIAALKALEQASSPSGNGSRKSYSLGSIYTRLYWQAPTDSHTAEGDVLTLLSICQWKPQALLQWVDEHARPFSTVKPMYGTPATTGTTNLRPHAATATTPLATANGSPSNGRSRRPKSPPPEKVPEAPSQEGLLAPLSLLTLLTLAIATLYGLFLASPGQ
Procedure, shortened: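 Reaction run 18 h at 25° C. with 60 nM TEX615/quencher-labelled dsDNA and 6 pM mouse TREX1 in Tris buffer (pH 7.4, 5 mM MgCl2, 1.0% DMSO), enzyme having sat 4 h with compound across 10 concentrations. EDTA quench; substrate degradation measured as fluorescence increase.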

[1] = biochemical, read-out: hTREX1 IC50
[2] = biochemical, read-out: mTREX1 IC50

COC(C)(C)Cn1cc(C(c2ccccc2C#N)C(C)c2nc(C(=O)Nc3cnoc3)c(O)c(=O)n2C)cn1 (single isomer, unassigned) [Example 37 D1E2]
IC50 (full length human TREX1; [1]): > 10 nM
IC50 (full length mouse TREX1; [2]): > 10 nM

COC(C)(C)Cn1cc(C(c2ccccc2C#N)C(C)c2nc(C(=O)Nc3cnoc3)c(O)c(=O)n2C)cn1 (single isomer, unassigned) [Example 37 D2E1]
IC50 (full length human TREX1; [1]): > 10 nM
IC50 (full length mouse TREX1; [2]): > 10 nM

CC(c1nc(C(=O)Nc2cnoc2)c(O)c(=O)n1C)C(c1cnn(C(F)F)c1)c1ccccc1C#N (single isomer, unassigned) [Example 38 D1E2]
IC50 (full length human TREX1; [1]): > 10 nM
IC50 (full length mouse TREX1; [2]): > 10 nM

CC(c1nc(C(=O)Nc2cnoc2)c(O)c(=O)n1C)C(c1cnn(C(F)F)c1)c1ccccc1C#N (single isomer, unassigned) [Example 38 D2E1]
IC50 (full length human TREX1; [1]): > 10 nM
IC50 (full length mouse TREX1; [2]): > 10 nM

CC(c1nc(C(=O)Nc2cnoc2)c(O)c(=O)n1C)C(c1cn(C)cn1)c1ccccc1C#N (single isomer, unassigned) [Example 39 D1E1]
IC50 (full length human TREX1; [1]): > 10 nM
IC50 (full length mouse TREX1; [2]): > 10 nM

CC(c1nc(C(=O)Nc2cnoc2)c(O)c(=O)n1C)C(c1cn(C)cn1)c1ccccc1C#N (single isomer, unassigned) [Example 39 D1E2]
IC50 (full length human TREX1; [1]): > 10 nM
IC50 (full length mouse TREX1; [2]): > 10 nM

CC(c1nc(C(=O)Nc2cnoc2)c(O)c(=O)n1C)C(c1cn(C)cn1)c1ccccc1C#N (single isomer, unassigned) [Example 39 D2E1]
IC50 (full length human TREX1; [1]): > 10 nM
IC50 (full length mouse TREX1; [2]): > 10 nM

Cn1cc(C(c2ccccc2C#N)C(c2nc(C(=O)Nc3cnoc3)c(O)c(=O)n2C)C(F)(F)F)cn1 (single isomer, unassigned) [Example 40 D1E1]
IC50 (full length human TREX1; [1]): > 10 nM
IC50 (full length mouse TREX1; [2]): > 10 nM

Cn1cc(C(c2ccccc2C#N)C(c2nc(C(=O)Nc3cnoc3)c(O)c(=O)n2C)C(F)(F)F)cn1 (single isomer, unassigned) [Example 40 D2E1]
IC50 (full length human TREX1; [1]): > 10 nM
IC50 (full length mouse TREX1; [2]): > 10 nM

Cc1nn(C)cc1C(c1ccccc1C#N)C(c1nc(C(=O)Nc2cnoc2)c(O)c(=O)n1C)C(F)(F)F (single isomer, unassigned) [Example 41 D1E1]
IC50 (full length human TREX1; [1]): > 10 nM
IC50 (full length mouse TREX1; [2]): > 10 nM

Cc1nn(C)cc1C(c1ccccc1C#N)C(c1nc(C(=O)Nc2cnoc2)c(O)c(=O)n1C)C(F)(F)F (single isomer, unassigned) [Example 41 D2E1]
IC50 (full length human TREX1; [1]): 1 to 10 nM
IC50 (full length mouse TREX1; [2]): > 10 nM

Cc1nn(C)cc1C(c1ccccc1C#N)C(c1nc(C(=O)Nc2cnoc2)c(O)c(=O)n1C)C(F)(F)F (single isomer, unassigned) [Example 41 D2E2]
IC50 (full length human TREX1; [1]): > 10 nM
IC50 (full length mouse TREX1; [2]): > 10 nM

Cc1nn(C)cc1C(c1cc(F)ccc1C#N)C(c1nc(C(=O)Nc2cnoc2)c(O)c(=O)n1C)C(F)(F)F (single isomer, unassigned) [Example 42 D1E1]
IC50 (full length human TREX1; [1]): > 10 nM
IC50 (full length mouse TREX1; [2]): > 10 nM

Cc1nn(C)cc1C(c1cc(F)ccc1C#N)C(c1nc(C(=O)Nc2cnoc2)c(O)c(=O)n1C)C(F)(F)F (single isomer, unassigned) [Example 42 D2E2]
IC50 (full length human TREX1; [1]): > 10 nM
IC50 (full length mouse TREX1; [2]): > 10 nM

Cc1ncc(C(c2ccccc2Cl)C(C)c2nc(C(=O)Nc3cnoc3)c(O)c(=O)n2C)cn1 (single isomer, unassigned) [Example 44 D2E1]
IC50 (full length human TREX1; [1]): > 10 nM
IC50 (full length mouse TREX1; [2]): > 10 nM

Cc1ccn(C(c2ccccc2Cl)C(C)c2nc(C(=O)Nc3cnoc3)c(O)c(=O)n2C)n1 (single isomer, unassigned) [Example 49 D1E1]
IC50 (full length human TREX1; [1]): 1 to 10 nM
IC50 (full length mouse TREX1; [2]): 1 to 10 nM

Cc1ccn(C(c2ccccc2Cl)C(C)c2nc(C(=O)Nc3cnoc3)c(O)c(=O)n2C)n1 (single isomer, unassigned) [Example 49 D1E2]
IC50 (full length human TREX1; [1]): > 10 nM
IC50 (full length mouse TREX1; [2]): > 10 nM

CC(c1nc(C(=O)Nc2cnoc2)c(O)c(=O)n1C)C(c1cocn1)c1ccccc1C#N (single isomer, unassigned) [Example 50 D1E2]
IC50 (full length human TREX1; [1]): > 10 nM
IC50 (full length mouse TREX1; [2]): > 10 nM

CC(c1nc(C(=O)Nc2cnoc2)c(O)c(=O)n1C)C(c1cocn1)c1ccccc1C#N (single isomer, unassigned) [Example 50 D2E2]
IC50 (full length human TREX1; [1]): > 10 nM
IC50 (full length mouse TREX1; [2]): > 10 nM

CC(c1nc(C(=O)Nc2cnoc2)c(O)c(=O)n1C)C(c1ncn(C)n1)c1ccccc1C#N (single isomer, unassigned) [Example 51 D1E1]
IC50 (full length human TREX1; [1]): > 10 nM
IC50 (full length mouse TREX1; [2]): > 10 nM

CC(c1nc(C(=O)Nc2cnoc2)c(O)c(=O)n1C)C(c1ncn(C)n1)c1ccccc1C#N (single isomer, unassigned) [Example 51 D2E1]
IC50 (full length human TREX1; [1]): > 10 nM
IC50 (full length mouse TREX1; [2]): > 10 nM

CC(c1nc(C(=O)Nc2cnoc2)c(O)c(=O)n1C)C(c1ncn(C)n1)c1ccccc1C#N (single isomer, unassigned) [Example 51 D2E2]
IC50 (full length human TREX1; [1]): > 10 nM
IC50 (full length mouse TREX1; [2]): > 10 nM

CC(c1nc(C(=O)Nc2cnoc2)c(O)c(=O)n1C)C(c1ccccc1C#N)c1c(C#N)cnn1C (single isomer, unassigned) [Example 52 D1E2]
IC50 (full length human TREX1; [1]): > 10 nM
IC50 (full length mouse TREX1; [2]): > 10 nM

CC(c1nc(C(=O)Nc2cnoc2)c(O)c(=O)n1C)C(c1ccccc1C#N)c1c(C#N)cnn1C (single isomer, unassigned) [Example 52 D2E2]
IC50 (full length human TREX1; [1]): > 10 nM
IC50 (full length mouse TREX1; [2]): > 10 nM

Cc1cncc(C(c2ccccc2C#N)C(C)c2nc(C(=O)Nc3cnoc3)c(O)c(=O)n2C)n1 (single isomer, unassigned) [Example 53 D1E1]
IC50 (full length human TREX1; [1]): > 10 nM
IC50 (full length mouse TREX1; [2]): > 10 nM

Cc1cncc(C(c2ccccc2C#N)C(C)c2nc(C(=O)Nc3cnoc3)c(O)c(=O)n2C)n1 (single isomer, unassigned) [Example 53 D2E1]
IC50 (full length human TREX1; [1]): > 10 nM
IC50 (full length mouse TREX1; [2]): > 10 nM

Cc1cncc(C(c2ccccc2C#N)C(C)c2nc(C(=O)Nc3cnoc3)c(O)c(=O)n2C)n1 (single isomer, unassigned) [Example 53 D2E2]
IC50 (full length human TREX1; [1]): > 10 nM
IC50 (full length mouse TREX1; [2]): > 10 nM

Cc1ccnn1C(c1ccccc1Cl)C(C)c1nc(C(=O)Nc2cnoc2)c(O)c(=O)n1C (single isomer, unassigned) [Example 54 D1E1]
IC50 (full length human TREX1; hTREX1 IC50, biochemical): 1 to 10 nM
IC50 (full length mouse TREX1; mTREX1 IC50, biochemical): 1 to 10 nM

Cc1ccnn1C(c1ccccc1Cl)C(C)c1nc(C(=O)Nc2cnoc2)c(O)c(=O)n1C (single isomer, unassigned) [Example 54 D1E2]
IC50 (full length human TREX1; hTREX1 IC50, biochemical): > 10 nM
IC50 (full length mouse TREX1; mTREX1 IC50, biochemical): > 10 nM

CCn1cc(C(c2ccc(F)cc2C#N)C(C)c2nc(C(=O)Nc3cnoc3)c(O)c(=O)n2C)c(C)n1 (single isomer, unassigned) [Example 55 D1E2]
IC50 (full length human TREX1; [1]): > 10 nM
IC50 (full length mouse TREX1; [2]): > 10 nM

Cc1nn(C)cc1C(c1ccc(F)cc1C#N)C(C)c1nc(C(=O)Nc2cnoc2)c(O)c(=O)n1C (single isomer, unassigned) [Example 56 D1E2]
IC50 (full length human TREX1; [1]): > 10 nM
IC50 (full length mouse TREX1; [2]): > 10 nM

Cc1nn(C)cc1C(c1ccc(F)cc1C#N)C(C)c1nc(C(=O)Nc2cnoc2)c(O)c(=O)n1C (single isomer, unassigned) [Example 56 D2E1]
IC50 (full length human TREX1; [1]): 1 to 10 nM
IC50 (full length mouse TREX1; [2]): > 10 nM

Cc1nn(C)cc1C(c1ccc(F)cc1C#N)C(C)c1nc(C(=O)Nc2cnoc2)c(O)c(=O)n1C (single isomer, unassigned) [Example 56 D2E2]
IC50 (full length human TREX1; [1]): > 10 nM
IC50 (full length mouse TREX1; [2]): > 10 nM

Cc1nn(C)cc1C(c1cc(F)ccc1C#N)C(C)c1nc(C(=O)Nc2cnoc2)c(O)c(=O)n1C (single isomer, unassigned) [Example 57 D2E2]
IC50 (full length human TREX1; [1]): > 10 nM
IC50 (full length mouse TREX1; [2]): > 10 nM

CC(c1nc(C(=O)Nc2cnoc2)c(O)c(=O)n1C)C(c1cnn(C)c1)c1cc(F)ccc1Cl (single isomer, unassigned) [Example 61 D1E2]
IC50 (full length human TREX1; [1]): > 10 nM
IC50 (full length mouse TREX1; [2]): > 10 nM

Reference: patent publication US20240246946A1, “MODULATORS OF TREX1” (Constellation Pharmaceuticals, Inc., priority 2021, published 2024)
